Our source for the EC50 values is patent publication US8916702B2 (priority 2012, dated 2014).

The EC50 is the midpoint of the concentration-response curve.

For the first assay, the system named is HCV pseudoparticles (genotype 1a HCV E1 and E2 envelope, H77C isolate). The experiment in a line: microbe, parasite or virus in culture. In kind it is cell-based. The note with it: Hepatitis C virus, Huh-7, 48 h, HCV pseudoparticles, Huh7 cells, luciferase 2 days after infection; average of duplicates.
`CC(C)(CNC(=O)C(=O)Nc1cc[nH]n1)CNC(=O)c1ccc(Nc2nc(NC3(c4ccc(Cl)cc4)CC3)nc(OCC(F)(F)F)n2)cc1` [Compound 3794] came in with an EC50 of 0.061 nM. With `CC(C)(CNC(=O)C(=O)Nc1nc2ccc(Cl)cc2s1)CNC(=O)c1ccc(Nc2nc(NC3(c4ccc(Cl)cc4)CC3)nc(OCC(F)(F)F)n2)cc1` [Compound 3807], the concentration giving a half-maximal response (EC50) is 0.28 nM. For the compound `CC(C)(CNC(=O)C(N)=O)CNC(=O)c1c(F)cc(Nc2nc(NC3(c4ccc(Cl)cc4)CC3)nc(OCC(F)(F)F)n2)cc1F` [Compound 3812], the half-maximal effective concentration (EC50) was found to be 0.5 nM. In turn, `Cc1c(Cl)ccc2sc(NC(=O)C(=O)NCC(C)(C)CNC(=O)c3ccc(Nc4nc(NC5(c6ccc(Cl)cc6)CC5)nc(OCC(F)(F)F)n4)cc3)nc12` [Compound 3817] registered a concentration for a half-maximal effect (EC50) of 0.11 nM. Still for that read-out and setting: as for `CC(C)(CNC(=O)C(=O)Nc1nc2c(F)cccc2s1)CNC(=O)c1ccc(Nc2nc(NC3(c4ccc(Cl)cc4)CC3)nc(OCC(F)(F)F)n2)cc1` [Compound 3824], the figure is 0.077 nM; as for `COc1ccc(NC(=O)C(=O)NCC(C)(C)CNC(=O)c2ccc(Nc3nc(NC4(c5ccc(Cl)cc5)CC4)nc(OCc4ccc(C(C)C)cc4)n3)cc2F)cc1` [Compound 3828], 0.35 nM; as for `CC(O)(CNC(=O)C(N)=O)CNC(=O)c1ccc(Nc2nc(NC3(c4ccc(Cl)cc4)CC3)nc(OCC(F)(F)F)n2)cc1` (centres unmarked) [Compound 3834], 0.086 nM.

The assay is the same for the next values; noted with them: Hepatitis C virus, Huh-7, 48 h, read-out: Activity (EC50 class), HCV pseudoparticles, Huh7 cells, luciferase 2 days after infection; average of duplicates.
Take `CN(C)CCOc1ccc(NC(=O)C(=O)NC[C@H](NC(=O)c2ccc(Nc3nc(NC4(c5ccc(Cl)cc5)CC4)nc(OCC(F)(F)F)n3)cc2)C(=O)Cl)cn1` [Compound 3790]: the EC50 was 0.01 to 10 nM. Same read-out and setting: for `O=C(NC[C@H](NC(=O)c1ccc(Nc2nc(NC3(c4ccc(Cl)cc4)CC3)nc(OCC(F)(F)F)n2)cc1)C(=O)Cl)C(=O)Nc1ccc(OCCN2CCCCC2)nc1` [Compound 3791] the value was 0.01 to 10 nM; for `O=C(NC[C@H](NC(=O)c1ccc(Nc2nc(NC3(c4ccc(Cl)cc4)CC3)nc(OCC(F)(F)F)n2)cc1)C(=O)Cl)C(=O)Nc1cccc(Oc2cccnc2)c1` [Compound 3792], 0.01 to 10 nM; for `CC(C)(CNC(=O)C(=O)Nc1ccc(Cl)c(Cl)c1)CNC(=O)c1ccc(Nc2nc(NC3(c4ccc(Cl)cc4)CC3)nc(OCC(F)(F)F)n2)cc1` [Compound 3793], 0.01 to 10 nM. With `CC(C)(CNC(=O)C(=O)Nc1cc[nH]n1)CNC(=O)c1ccc(Nc2nc(NC3(c4ccc(Cl)cc4)CC3)nc(OCC(F)(F)F)n2)cc1` [Compound 3794], the 50% effective concentration (EC50) fell in the range of 0.01 to 10 nM. The same measure, in the same setting: for `CC(C)(CNC(=O)C(=O)Nc1ccc(-n2cccn2)cc1)CNC(=O)c1ccc(Nc2nc(NC3(c4ccc(Cl)cc4)CC3)nc(OCC(F)(F)F)n2)cc1` [Compound 3795] the value was 0.01 to 10 nM; for `CC(C)(CNC(=O)C(=O)Nc1ccc(-c2ccncc2)cc1)CNC(=O)c1ccc(Nc2nc(NC3(c4ccc(Cl)cc4)CC3)nc(OCC(F)(F)F)n2)cc1` [Compound 3796], 0.01 to 10 nM; for `CC(C)(CNC(=O)C(=O)Nc1ccc(-c2cccc(F)c2)cc1)CNC(=O)c1ccc(Nc2nc(NC3(c4ccc(Cl)cc4)CC3)nc(OCC(F)(F)F)n2)cc1` [Compound 3797], 0.01 to 10 nM. Regarding `Cc1cc(NC(=O)C(=O)NCC(C)(C)CNC(=O)c2ccc(Nc3nc(NC4(c5ccc(Cl)cc5)CC4)nc(OCC(F)(F)F)n3)cc2)ccc1Cl` [Compound 3798], the EC50 is 0.01 to 10 nM. Still for that read-out and setting: for `Cc1ccc(NC(=O)C(=O)NCC(C)(C)CNC(=O)c2ccc(Nc3nc(NC4(c5ccc(Cl)cc5)CC4)nc(OCC(F)(F)F)n3)cc2)cc1C` [Compound 3799] the value was 0.01 to 10 nM; for `CC(C)(CNC(=O)C(=O)Nc1nc2cc(O)ccc2s1)CNC(=O)c1ccc(Nc2nc(NC3(c4ccc(Cl)cc4)CC3)nc(OCC(F)(F)F)n2)cc1` [Compound 3801], 0.01 to 10 nM. As for `COc1cc2sc(NC(=O)C(=O)NCC(C)(C)CNC(=O)c3ccc(Nc4nc(NC5(c6ccc(Cl)cc6)CC5)nc(OCC(F)(F)F)n4)cc3)nc2cc1Cl` [Compound 3802], the EC50 lay in the range of 0.01 to 10 nM. Same read-out and setting: for `COc1ccc2nc(NC(=O)C(=O)NCC(C)(C)CNC(=O)c3ccc(Nc4nc(NC5(c6ccc(Cl)cc6)CC5)nc(OCC(F)(F)F)n4)cc3)sc2n1` [Compound 3803] the value was 0.01 to 10 nM; for `CC(C)(CNC(=O)C(=O)Nc1nc2ccc(F)cc2s1)CNC(=O)c1ccc(Nc2nc(NC3(c4ccc(Cl)cc4)CC3)nc(OCC(F)(F)F)n2)cc1` [Compound 3804], 0.01 to 10 nM. As to `Cc1cccc2sc(NC(=O)C(=O)NCC(C)(C)CNC(=O)c3ccc(Nc4nc(NC5(c6ccc(Cl)cc6)CC5)nc(OCC(F)(F)F)n4)cc3)nc12` [Compound 3805], the half-maximal effective concentration (EC50) is 0.01 to 10 nM. Consider `COc1ccc2sc(NC(=O)C(=O)NCC(C)(C)CNC(=O)c3ccc(Nc4nc(NC5(c6ccc(Cl)cc6)CC5)nc(OCC(F)(F)F)n4)cc3)nc2c1` [Compound 3806], for which the half-maximal effective concentration (EC50) lay within 0.01 to 10 nM. In the case of `CC(C)(CNC(=O)C(=O)Nc1nc2ccc(Cl)cc2s1)CNC(=O)c1ccc(Nc2nc(NC3(c4ccc(Cl)cc4)CC3)nc(OCC(F)(F)F)n2)cc1` [Compound 3807], the EC50 lay within 0.01 to 10 nM. Regarding `CC(C)(CNC(=O)C(=O)Nc1nc2cnccc2s1)CNC(=O)c1ccc(Nc2nc(NC3(c4ccc(Cl)cc4)CC3)nc(OCC(F)(F)F)n2)cc1` [Compound 3808], the EC50 was 0.01 to 10 nM. Turning to `CC(C)(CNC(=O)C(=O)Nc1nc2c(F)cc(F)cc2s1)CNC(=O)c1ccc(Nc2nc(NC3(c4ccc(Cl)cc4)CC3)nc(OCC(F)(F)F)n2)cc1` [Compound 3809], the EC50 was in the range of 0.01 to 10 nM. With `CC(C)(CNC(=O)C(=O)Nc1nc2cc(F)ccc2s1)CNC(=O)c1ccc(Nc2nc(NC3(c4ccc(Cl)cc4)CC3)nc(OCC(F)(F)F)n2)cc1` [Compound 3810], the concentration for a half-maximal effect (EC50) was 0.01 to 10 nM. As to `CC(C)(CNC(=O)C(=O)Nc1nc2cccnc2s1)CNC(=O)c1ccc(Nc2nc(NC3(c4ccc(Cl)cc4)CC3)nc(OCC(F)(F)F)n2)cc1` [Compound 3811], the EC50 lay in the range of 0.01 to 10 nM.

Regarding `CC(C)(CNC(=O)C(N)=O)CNC(=O)c1c(F)cc(Nc2nc(NC3(c4ccc(Cl)cc4)CC3)nc(OCC(F)(F)F)n2)cc1F` [Compound 3812], the half-maximal effective concentration (EC50) was 0.01 to 10 nM. On to `COc1cccc2sc(NC(=O)C(=O)NCC(C)(C)CNC(=O)c3ccc(Nc4nc(NC5(c6ccc(Cl)cc6)CC5)nc(OCC(F)(F)F)n4)cc3)nc12` [Compound 3813], for which the concentration giving a half-maximal response (EC50) fell in the range of 0.01 to 10 nM.

Consider `COc1cccc2sc(NC(=O)C(=O)NCC(C)(C)CNC(=O)c3ccc(Nc4nc(NC5(c6ccc(Cl)cc6)CC5)nc(OCC(F)(F)F)n4)cc3F)nc12` [Compound 3814], for which the EC50 lay within 0.01 to 10 nM. Regarding `CC(C)(CNC(=O)C(=O)Nc1nc2c(Cl)cccc2s1)CNC(=O)c1ccc(Nc2nc(NC3(c4ccc(Cl)cc4)CC3)nc(OCC(F)(F)F)n2)cc1` [Compound 3815], the EC50 lay in the range of 0.01 to 10 nM. On to `COc1ccc2nc(NC(=O)C(=O)NCC(C)(C)CNC(=O)c3ccc(Nc4nc(NC5(c6ccc(Cl)cc6)CC5)nc(OCC(F)(F)F)n4)cc3)sc2c1` [Compound 3816], for which the EC50 was in the range of 0.01 to 10 nM.

For the compound `Cc1c(Cl)ccc2sc(NC(=O)C(=O)NCC(C)(C)CNC(=O)c3ccc(Nc4nc(NC5(c6ccc(Cl)cc6)CC5)nc(OCC(F)(F)F)n4)cc3)nc12` [Compound 3817], the concentration for a half-maximal effect (EC50) fell in the range of 0.01 to 10 nM. As for `Cc1ccc2sc(NC(=O)C(=O)NCC(C)(C)CNC(=O)c3ccc(Nc4nc(NC5(c6ccc(Cl)cc6)CC5)nc(OCC(F)(F)F)n4)cc3)nc2c1` [Compound 3818], the EC50 lay in the range of 0.01 to 10 nM. Take `CC(C)(CNC(=O)C(=O)Nc1nc2c(O)cccc2s1)CNC(=O)c1ccc(Nc2nc(NC3(c4ccc(Cl)cc4)CC3)nc(OCC(F)(F)F)n2)cc1` [Compound 3819]: the 50% effective concentration (EC50) lay in the range of 0.01 to 10 nM. For the compound `Cc1cc2nc(NC(=O)C(=O)NCC(C)(C)CNC(=O)c3ccc(Nc4nc(NC5(c6ccc(Cl)cc6)CC5)nc(OCC(F)(F)F)n4)cc3)sc2cc1C` [Compound 3820], the EC50 lay within 0.01 to 10 nM. The same measure, in the same setting: as for `CC(C)(CNC(=O)C(=O)Nc1nc2c(Cl)c(Cl)ccc2s1)CNC(=O)c1ccc(Nc2nc(NC3(c4ccc(Cl)cc4)CC3)nc(OCC(F)(F)F)n2)cc1` [Compound 3821], the figure is 0.01 to 10 nM; as for `CC(C)(CNC(=O)C(=O)Nc1nc2ccc(C(C)(O)O)cc2s1)CNC(=O)c1ccc(Nc2nc(NC3(c4ccc(Cl)cc4)CC3)nc(OCC(F)(F)F)n2)cc1` [Compound 3822], 0.01 to 10 nM; as for `CC(C)(CNC(=O)C(=O)Nc1nc2ccc(OC(F)(F)F)cc2s1)CNC(=O)c1ccc(Nc2nc(NC3(c4ccc(Cl)cc4)CC3)nc(OCC(F)(F)F)n2)cc1` [Compound 3823], 0.01 to 10 nM. The same measure, in the same setting: as for `CC(C)(CNC(=O)C(=O)Nc1nc2c(F)cccc2s1)CNC(=O)c1ccc(Nc2nc(NC3(c4ccc(Cl)cc4)CC3)nc(OCC(F)(F)F)n2)cc1` [Compound 3824], the figure is 0.01 to 10 nM; as for `CC(C)(CNC(=O)C(=O)Nc1nc2ccc(S(N)(=O)=O)cc2s1)CNC(=O)c1ccc(Nc2nc(NC3(c4ccc(Cl)cc4)CC3)nc(OCC(F)(F)F)n2)cc1` [Compound 3825], 0.01 to 10 nM; as for `Cc1ccc2nc(NC(=O)C(=O)NCC(C)(C)CNC(=O)c3ccc(Nc4nc(NC5(c6ccc(Cl)cc6)CC5)nc(OCC(F)(F)F)n4)cc3)sc2c1` [Compound 3826], 0.01 to 10 nM. Turning to `Cc1ccc(NC(=O)C(=O)NCC(C)(C)CNC(=O)c2ccc(Nc3nc(NC4(c5ccc(Cl)cc5)CC4)nc(OCc4ccc(C(C)C)cc4)n3)cc2F)cc1` [Compound 3827, N^1-(3-(4-((4-((1-(4-chlorophenyl)cyclopropyl)amino)-6-((4-isopropylbenzyl)oxy)-1,3,5-triazin-2-yl)amino)-2-fluorobenzamido)-2,2-dimethylpropyl)-N^2-(p-tolyl)oxalamide], the EC50 fell in the range of 0.01 to 10 nM. Turning to `COc1ccc(NC(=O)C(=O)NCC(C)(C)CNC(=O)c2ccc(Nc3nc(NC4(c5ccc(Cl)cc5)CC4)nc(OCc4ccc(C(C)C)cc4)n3)cc2F)cc1` [Compound 3828], the EC50 was 0.01 to 10 nM.

`CC(C)c1ccc(COc2nc(Nc3ccc(C(=O)NCC(C)(C)CNC(=O)C(=O)Nc4ccccc4-c4ccccc4)c(F)c3)nc(NC3(c4ccc(Cl)cc4)CC3)n2)cc1` [Compound 3830, N^1-([1, 1′-biphenyl]-2-yl)-N^2-(3-(4-((4-((1-(4-chlorophenyl)cyclopropyl)amino)-6-((4-isopropylbenzyl)oxy)-1,3,5-triazin-2-yl)amino)-2-fluorobenzamido)-2,2-dimethylpropyl)oxalamide]: the concentration giving a half-maximal response (EC50) lay within 0.01 to 10 nM.

`CC(C)(CNC(=O)C(=O)Nc1ccc(-c2nc3ccccc3o2)cc1)CNC(=O)c1ccc(Nc2nc(NC3(c4ccc(Cl)cc4)CC3)nc(OCC(F)(F)F)n2)cc1` [Compound 3831]: the EC50 fell in the range of 0.01 to 10 nM. On the same count and under the same terms, as for `Cc1ccc(NC(=O)C(=O)NCC(C)(O)CNC(=O)c2ccc(Nc3nc(NC4(c5ccc(Cl)cc5)CC4)nc(OCC(F)(F)F)n3)cc2)cc1` (centres unmarked) [Compound 3832], the figure is 0.01 to 10 nM; as for `COc1ccc(CN(CC(C)(O)CNC(=O)c2ccc(Nc3nc(NC4(c5ccc(Cl)cc5)CC4)nc(OCC(F)(F)F)n3)cc2)C(=O)C(=O)Nc2ccc(C)cc2)c(OC)c1` (centres unmarked) [Compound 3833], 0.01 to 10 nM; as for `CC(O)(CNC(=O)C(N)=O)CNC(=O)c1ccc(Nc2nc(NC3(c4ccc(Cl)cc4)CC3)nc(OCC(F)(F)F)n2)cc1` (centres unmarked) [Compound 3834], 0.01 to 10 nM.
